From patent publication US12642862B2, “Anti-CD79B antibody-drug conjugate, and preparation method therefor and pharmaceutical use thereof” (TUOJIE BIOTECH (SHANGHAI) CO., LTD., priority 2020, dated 2026)

T1: human CD79B (Homo sapiens, UniProt P40259)
T1 sequence (P40259 29-159 limits assumed): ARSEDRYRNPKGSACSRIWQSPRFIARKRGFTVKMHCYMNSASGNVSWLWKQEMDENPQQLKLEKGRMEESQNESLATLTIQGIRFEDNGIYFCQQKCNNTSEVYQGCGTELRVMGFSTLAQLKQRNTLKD

T2: CD79B protein on the surface of DoHH2 cells (Homo sapiens, UniProt P40259)
T2 construct: endogenous in cells; host or cells: DoHH2 (DOHH-2) cells
T2 sequence (P40259 29-229): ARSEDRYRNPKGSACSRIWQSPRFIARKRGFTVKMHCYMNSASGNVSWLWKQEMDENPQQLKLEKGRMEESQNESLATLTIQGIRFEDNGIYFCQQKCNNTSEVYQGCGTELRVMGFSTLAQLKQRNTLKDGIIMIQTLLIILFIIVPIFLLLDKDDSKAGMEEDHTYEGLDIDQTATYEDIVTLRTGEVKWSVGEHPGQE
T2 sequence (P11912 33-226 partner): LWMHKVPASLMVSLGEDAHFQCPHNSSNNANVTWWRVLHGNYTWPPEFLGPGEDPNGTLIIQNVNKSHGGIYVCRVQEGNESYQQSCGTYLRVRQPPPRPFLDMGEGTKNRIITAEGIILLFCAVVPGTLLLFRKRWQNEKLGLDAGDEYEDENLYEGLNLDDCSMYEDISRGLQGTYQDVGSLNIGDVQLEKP

B1: mAb015: anti-human CD79B mouse monoclonal antibody, clone 83B2G2; VH SEQ ID NO: 3, VL SEQ ID NO: 4 (antibody, listed as Mus musculus, V domains shown)
VH: QVQLQQSGAELARPGASVKLSCKASGSSFTSYGINWVKQRTGQGLEWIGEIFPRSGNTYYNEKFEGKATLTADKSSSTAYMELRSLTSEDSAVYFCAKGDLGDFDYWGQGTTLTVSS
VL: DFLMTQTPLSLPVRLGDQASISCRSSQSIVHSDGNTYFEWYLQKPGQSPKLLIYKVSNRFSGVPDRFSGSGSGTDFTLKISRVEAEDLGVYYCFQGSHVPWTFGGGTKLEIK

What was measured:
MDA-MB-468 = test: Test Example 2 in vitro cytotoxic activity (CTG), MDA-MB-468; assay type: cell-based; settings: MDA-MB-468, 5 days; for IC50: Homo sapiens, 120 h
Procedure: (§1) In this experiment, the ATP content was determined using CTG to reflect the survival condition of the tumor cells.
(§2) Each of A549, SKBR3 and MDA-MB-468 was digested with pancreatin, resuspended in a culture medium and counted, and the cell density was adjusted to 2.2×10^4 cells/mL. 135 μL of cell suspension was added to each well in columns 2 to 11 of a 96-well plate, and column 12 was set as blank control. The cells were cultured in an incubator at 37° C. with 5% CO2 for 24 h.
(§3) a) Stock solution preparation: the drug was dissolved in DMSO to obtain a stock solution at a concentration of 5 mM.
(§4) b) Plate 1: stock solution in column 1 was initially subjected to a 40-fold dilution, and 3-fold gradient dilutions were performed sequentially in columns 2 to 11. Column 12 was filled with DMSO.
(§5) c) Plate 2: 196 μL of the corresponding culture medium was added to columns 2 to 11, and 4 μL of culture medium was pipetted from columns 3 to 12 of the plate 1 to columns 2 to 11 of the plate 2. The culture medium was mixed well.
(§6) 15 μL of culture medium was pipetted from the plate 2 and added to the cells. The cells were continuously cultured in an incubator at 37° C. with 5% C02 for 5 days.
(§7) 2.4. CTG assay: the plate was taken out and allowed to equilibrate to room temperature. 75 μL of CTG was added to each well and reacted at room temperature for 10 min away from the light. The luminescence value was read using a microplate reader and IC50 was calculated. 2.5. Data Results

SKBR3 = test: Test Example 2 in vitro cytotoxic activity (CTG), SKBR3; assay type: cell-based; settings: SKBR3, 5 days; for IC50: Homo sapiens, SK-BR-3, 120 h
Procedure: as §1, §2, §3, §4, §5, §6, §7

A549 = test: Test Example 2 in vitro cytotoxic activity (CTG), A549; assay type: cell-based; settings: A549, 5 days; for IC50: Homo sapiens, 120 h
Procedure: as §1, §2, §3, §4, §5, §6, §7

[1] = tested on: DOHH-2 cells highly expressing human CD79B protein; test: Endocytosis of anti-CD79B antibodies in DOHH-2 cells; assay type: cell-based
Procedure: In order to determine whether the CD79B antibodies of the present disclosure can be endocytosed into cells with human CD79B after binding to human CD79B, a cell endocytosis experiment was performed with DOHH-2 cells (DSMZ, ACC 47) highly expressing human CD79B protein to assess the endocytosis ability of the antibodies.
The cells were collected by low temperature centrifugation at 4° C. for 5 min at 1000 rpm during the experiment. The cells were resuspended in 10-15 mL of FACS buffer pre-cooled on ice. The FACS buffer was composed of phosphate buffered saline (PBS), pH 7.4, with 2% fetal bovine serum (FBS). Throughout the experiment, FACS buffer was pre-cooled on ice. The cells were counted and centrifuged, and added to a 96-well plate at 300,000 cells/well. After centrifugation, the supernatant was discarded, and 12.5 μg/mL Fc blocking solution (BD, Cat No.: 564220) was added at 100 μL/well. Blocking was performed at room temperature for 10 min. Then, 20 μg/mL test CD79B antibody was added to the corresponding wells, and the plate was incubated at 4° C. for 1 h away from the light. The plate was washed twice with a pre-cooled PBS buffer to remove unbound antibodies. A complete cell culture medium (RPMI 1640 medium with 10% fetal bovine serum) was added, and the plate was incubated at 37° C. with 5% CO2 for 0 h, 1 h, 2 h and 4 h. After centrifugation, the supernatant was discarded, 2% PFA buffer solution was added at 100 μL/well to resuspend the cells, and the plate was left to stand for 10 min. Then, the plate was washed 3 times with an FACS buffer, and 100 μL of secondary antibody solution (fluorescent labeled goat anti-human secondary antibody: diluted in a 1:250 ratio, 2 μg/mL, Biolegend, Cat #409304) was added. The plate was incubated at 4° C. for half an hour away from the light. A pre-cooled PBS buffer was added, and the supernatant was discarded after centrifugation at 4° C., which were repeated three times. The cells were resuspended in an FACS buffer at 200 μL/well and detected using a flow cytometer (BD FACS Calibur).

human CD79B [2] = molecular target: T1, human CD79B; test: ELISA of anti-human CD79B hybridoma positive clones; assay type: binding; parameters: the extracellular region (ECD) of human CD79B comprises 159 amino acids (Met1-Asp159); made in house; host or cells: 293F cells; settings: hybridoma cell supernatant, read at 450 nm
Procedure: (§8) 3) ELISA screening A 96-well plate was coated with 1 μg/mL antigen at 50 μL/well and incubated in a refrigerator at 4° C. overnight. The next day, the coated antigen plate was washed once (washing solution: 1×PBST). After washing, the plate was blocked with 1% BSA blocking solution prepared in 1×PBST at 37° C. for 1 h. After washing the plate 3 times with 1×PBST, 50 μL of the test cell supernatant was added, and the plate was incubated in an incubator at 37° C. for 1 h. After washing the plate 3 times with 1×PBST, 100 μL of goat anti-mouse secondary antibody diluted in a 1:5000 ratio was added, and the plate was incubated in an incubator at 37° C. for 0.5 h. After washing the plate, TMB color development solutions A and B were mixed in a 1:1 ratio for color development. 15 min later, the color development reaction was stopped with 1 N hydrochloric acid. […] value was read at 450 nm on a Spectra Max M5 microplate reader.
(§9) 5) Identification of hybridoma positive clones A plurality of specific antibodies against human CD79B antigen were obtained; and 17 strains of hybridomas having strongest binding force to ELISA and FACS in assays were taken for production and purification of antibodies. Specific antibodies against monkey CD79B antigen were also obtained; and 4 strains of hybridomas having strongest binding force to ELISA and FACS in assays were taken for production and purification of antibodies. Assay results of anti-monkey CD79B hybridoma positive clone cells by FACS are shown in Table 4. mIgG was used as negative control in the both assays.

[3] = molecular target: T2, CD79B protein on the surface of DoHH2 cells; test: FACS of purified anti-human CD79B mouse monoclonal antibodies on DoHH2 cells; assay type: binding
Procedure: 3) Assay on anti-human CD79B mouse monoclonal antibodies by FACS The cell suspension of DoHH2 cells was centrifuged, resuspended in PBS containing 0.1% BSA, and counted. 100 μL of antibody diluted in a 1:10 ratio from 100 nM was added, and the cells were incubated at room temperature for 1 h and washed three times. Then Anti-Mouse IgG (Fc specific)-FITC secondary antibody was added, and the cells were incubated at room temperature for 30 min away from the light, washed three times, gently resuspended in PBS containing 0.1% BSA, and loaded on the machine for assay. […] The specific data are shown in FIGS. 9A and 9B, in which hIgG1 is a negative control antibody and SN8 is a positive control antibody. SN8 is an antibody (reference sequence source: US20170362318A) used in the antibody-drug conjugate polatuzumab vedotin developed by Roche pharmaceutical. Polatuzumab vedotin has been approved by the FDA for marketing.

[4] = molecular target: T2, CD79B protein on the surface of DoHH2 cells; test: FACS of anti-human CD79B hybridoma positive clones; assay type: binding
Procedure: 4) FACS screening The suspension of DoHH2 cells was centrifuged, resuspended in PBS containing 0.1% BSA, and counted. The test serum was added, and the cells were incubated at room temperature for 60 min and washed. Then Anti-Mouse IgG (Fc specific)-FITC secondary antibody was added, and the cells were incubated at room temperature for 30 min away from the light, washed three times, gently resuspended in PBS containing 0.1% BSA, and loaded on the machine for assay.
as §9

human CD79B [5] = molecular target: T1, human CD79B; test: ELISA of purified anti-human CD79B mouse monoclonal antibodies; assay type: binding; parameters: the extracellular region (ECD) of human CD79B comprises 159 amino acids (Met1-Asp159); made in house; host or cells: 293F cells; settings: purified antibodies diluted 1:10 from 100 nM; FIG. 8
Procedure: as §8, with “2) Assay on anti-human CD79B mouse monoclonal antibodies by” for “3)”, “ELISA” for “ELISA screening”, “antibody diluted in a 1:10 ratio from 100 nM” for “the test cell supernatant”

Molecule	IC50 (MDA-MB-468) [nM]	Maximum inhibition (%) (MDA-MB-468)	IC50 (SKBR3) [nM]	Maximum inhibition (%) (SKBR3)	Maximum inhibition (%) (A549)	IC50 (A549) [nM]	endocytosis by DOHH-2 cells at 4° C. ([1]; 20 μg/mL antibody, incubation at 4° C.)	endocytosis by DOHH-2 cells at 37° C. after 1 h ([1]; 20 μg/mL antibody, incubation at 37° C., 1 h)	endocytosis, overall judgement ([1]; DOHH-2 cells)	time at which antibody endocytosis reaches a maximum ([1]; incubation at 37° C.) [h]	Results (OD450) (human CD79B [2])	FACS binding force ([3]; antibodies diluted 1:10 from 100 nM, FIGS. 9A, 9B)	FACS binding force compared with SN8 ([3]; positive control antibody SN8)	Mean fluorescence value [4]	ELISA binding force (human CD79B [5])
C=C1C[C@@H]2CC[C@@]34C[C@H]5O[C@H]6[C@@H](O3)[C@H]3O[C@H](CC[C@@H]3O[C@H]6[C@H]5O4)CC(=O)C[C@@H]3[C@@H](OC)[C@@H](C[C@H](O)CO)O[C@H]3C[C@H]3O[C@@H](CC[C@@H]1O2)C[C@@H](C)C3=C [E1-30]	0.36	90.49	0.166	96.15	62.46	0.781	–	–	–	–	–	–	–	–	–
C=C1C[C@@H]2CC[C@@]34C[C@H]5O[C@H]6[C@@H](O3)[C@H]3O[C@H](CC[C@@H]3O[C@H]6[C@H]5O4)CC(=O)C[C@@H]3[C@@H](OC)[C@@H](C[C@@H](CNC)OC)O[C@H]3C[C@H]3O[C@@H](CC[C@@H]1O2)C[C@@H](C)C3=C [D-2]	1.88	89.43	1.09	96.85	62.09	3.08	–	–	–	–	–	–	–	–	–
SN8 [reference compound]	–	–	–	–	–	–	cannot be endocytosed by DOHH-2 cells	most of the antibodies are already endocytosed by DOHH-2 cells	good endocytosis	4	–	–	–	–	–
C=C1C[C@@H]2CC[C@@]34C[C@H]5O[C@H]6[C@@H](O3)[C@H]3O[C@H](CC[C@@H]3O[C@H]6[C@H]5O4)CC(=O)C[C@@H]3[C@@H](OC)[C@@H](C[C@H](O)CNC)O[C@H]3C[C@H]3O[C@@H](CC[C@@H]1O2)C[C@@H](C)C3=C [E-305]	1.17	88.53	0.571	96.42	61.27	2.1	–	–	–	–	–	–	–	–	–
B1	–	–	–	–	–	–	–	–	–	–	3.41	strongest FACS binding force	superior binding force to SN8	10036	strongest ELISA binding force
